Source: ChEMBL document CHEMBL3885861, “Open TG-GATES”

Species on record: Rattus norvegicus
Assay: Open TG-GATES - Regimen: Daily Repeat
Type: toxicity, organism-based, Sprague-Dawley
Design: regimen Daily Repeat, gender Male, age 6 weeks
Conditions: in vivo, po, 5 mg/kg, route gavage, dose level Low; for APTT / Bas / Eos / Fbg / Hb / Ht / Lym / MCH / MCHC / MCV / Mono / Neu / PT / Plat / RBC / Ret / WBC: tissue Blood; for KIDNEY_L / KIDNEY_R / KIDNEY_TOTAL: tissue Kidney; for LIVER: tissue Liver; for A/G / ALP / ALT / AST / BUN / CRE / Ca / Cl / DBIL / GLC / IP / K / LDH / Na / PL / RALB / TBIL / TC / TG / TP / gamma-GTP: tissue Plasma

Question: Which results are given for CC(=N)S [THIOACETAMIDE]?
Answer: TERMINAL_BW (72 h, time 3 day): 228.6 g; APTT (72 h, time 3 day): 16.9 s; Bas (72 h, time 3 day): 0%; Eos (72 h, time 3 day): 1%; Fbg (72 h, time 3 day): 234 mg/dL; Hb (72 h, time 3 day): 13.6 g/dL; Ht (72 h, time 3 day): 41.4%; Lym (72 h, time 3 day): 78.8%; MCH (72 h, time 3 day): 21 pg; MCHC (72 h, time 3 day): 32.9%; MCV (72 h, time 3 day): 63.8 fL; Mono (72 h, time 3 day): 8.2%; Neu (72 h, time 3 day): 12.2%; PT (72 h, time 3 day): 11.6 s; Plat (72 h, time 3 day): 111 x10_4/uL; RBC (72 h, time 3 day): 649.4 x10_4/ul; Ret (72 h, time 3 day): 6.6%; WBC (72 h, time 3 day): 139.8 x10_2/uL; KIDNEY_L (72 h, time 3 day): 1 g; KIDNEY_R (72 h, time 3 day): 1.1 g; KIDNEY_TOTAL (72 h, time 3 day): 2.1 g; LIVER (72 h, time 3 day): 11.7 g; A/G (72 h, time 3 day): 2.1; ALP (72 h, time 3 day): 900 IU/L; ALT (72 h, time 3 day): 28 IU/L; AST (72 h, time 3 day): 58.8 IU/L; BUN (72 h, time 3 day): 16.2 mg/dL; CRE (72 h, time 3 day): 0.5 mg/dL; Ca (72 h, time 3 day): 10.7 mg/dL; Cl (72 h, time 3 day): 104.8 meq/L; DBIL (72 h, time 3 day): 0.004 mg/dL; GLC (72 h, time 3 day): 192.6 mg/dL; IP (72 h, time 3 day): 7.8 mg/dL; K (72 h, time 3 day): 4.7 meq/L; LDH (72 h, time 3 day): 95.2 IU/L; Na (72 h, time 3 day): 137 meq/L; PL (72 h, time 3 day): 159.8 mg/dL; RALB (72 h, time 3 day): 4 g/dL; TBIL (72 h, time 3 day): 0.3 mg/dL; TC (72 h, time 3 day): 83.2 mg/dL; TG (72 h, time 3 day): 123.2 mg/dL; TP (72 h, time 3 day): 5.9 g/dL; gamma-GTP (72 h, time 3 day): 2 IU/L; TERMINAL_BW ([…], time 7 day): 252.6 g; TERMINAL_BW ([…], time 14 day): 308.5 g; TERMINAL_BW ([…], time 28 day): 375.1 g; APTT ([…], time 7 day): 16.4 s; Bas ([…], time 7 day): 0%; Eos ([…], time 7 day): 1%; Fbg ([…], time 7 day): 229.2 mg/dL; Hb ([…], time 7 day): 13.8 g/dL; Ht ([…], time 7 day): 41.5%; Lym ([…], time 7 day): 82%; MCH ([…], time 7 day): 20.9 pg; MCHC ([…], time 7 day): 33.3%; MCV ([…], time 7 day): 62.9 fL; Mono ([…], time 7 day): 6.6%; Neu ([…], time 7 day): 10.2%; PT ([…], time 7 day): 12.1 s; Plat ([…], time 7 day): 111.2 x10_4/uL; RBC ([…], time 7 day): 660.4 x10_4/ul; Ret ([…], time 7 day): 5.3%; WBC ([…], time 7 day): 155.6 x10_2/uL; APTT ([…], time 14 day): 17.1 s; Bas ([…], time 14 day): 0%; Eos ([…], time 14 day): 0.8%; Fbg ([…], time 14 day): 231.8 mg/dL; Hb ([…], time 14 day): 14.6 g/dL; Ht ([…], time 14 day): 44.1%; Lym ([…], time 14 day): 83.6%; MCH ([…], time 14 day): 19.8 pg; MCHC ([…], time 14 day): 33.1%; MCV ([…], time 14 day): 59.9 fL; Mono ([…], time 14 day): 6%; Neu ([…], time 14 day): 10%; PT ([…], time 14 day): 12.3 s; Plat ([…], time 14 day): 102 x10_4/uL; RBC ([…], time 14 day): 736.2 x10_4/ul; Ret ([…], time 14 day): 3.9%; WBC ([…], time 14 day): 165.2 x10_2/uL; APTT ([…], time 28 day): 17 s; Bas ([…], time 28 day): 0%; Eos ([…], time 28 day): 0.8%; Fbg ([…], time 28 day): 242.4 mg/dL; Hb ([…], time 28 day): 15 g/dL; Ht ([…], time 28 day): 44.9%; Lym ([…], time 28 day): 85.2%; MCH ([…], time 28 day): 19.6 pg; MCHC ([…], time 28 day): 33.5%; MCV ([…], time 28 day): 58.5 fL; Mono ([…], time 28 day): 3.6%; Neu ([…], time 28 day): 10.4%; PT ([…], time 28 day): 11.1 s; Plat ([…], time 28 day): 111.7 x10_4/uL; RBC ([…], time 28 day): 767.8 x10_4/ul; Ret ([…], time 28 day): 3%; WBC ([…], time 28 day): 184.6 x10_2/uL; KIDNEY_L ([…], time 7 day): 1 g; KIDNEY_R ([…], time 7 day): 1.1 g; KIDNEY_TOTAL ([…], time 7 day): 2.1 g; KIDNEY_L ([…], time 14 day): 1.2 g; KIDNEY_R ([…], time 14 day): 1.2 g; KIDNEY_TOTAL ([…], time 14 day): 2.4 g; KIDNEY_L ([…], time 28 day): 1.3 g; KIDNEY_R ([…], time 28 day): 1.4 g; KIDNEY_TOTAL ([…], time 28 day): 2.7 g; LIVER ([…], time 7 day): 12.3 g; LIVER ([…], time 14 day): 13.6 g; LIVER ([…], time 28 day): 16.5 g; A/G ([…], time 7 day): 1.9; ALP ([…], time 7 day): 742.6 IU/L; ALT ([…], time 7 day): 31.8 IU/L; AST ([…], time 7 day): 56 IU/L; BUN ([…], time 7 day): 18 mg/dL; CRE ([…], time 7 day): 0.5 mg/dL; Ca ([…], time 7 day): 10.5 mg/dL; Cl ([…], time 7 day): 105 meq/L; DBIL ([…], time 7 day): 0.008 mg/dL; GLC ([…], time 7 day): 186.6 mg/dL; IP ([…], time 7 day): 7.6 mg/dL; K ([…], time 7 day): 5.1 meq/L; LDH ([…], time 7 day): 84.8 IU/L; Na ([…], time 7 day): 135.2 meq/L; PL ([…], time 7 day): 160 mg/dL; RALB ([…], time 7 day): 3.9 g/dL; TBIL ([…], time 7 day): 0.3 mg/dL; TC ([…], time 7 day): 76.4 mg/dL; TG ([…], time 7 day): 167.4 mg/dL; TP ([…], time 7 day): 6 g/dL; gamma-GTP ([…], time 7 day): 1.4 IU/L; A/G ([…], time 14 day): 2; ALP ([…], time 14 day): 870.6 IU/L; ALT ([…], time 14 day): 29.8 IU/L; AST ([…], time 14 day): 62 IU/L; BUN ([…], time 14 day): 18.2 mg/dL; CRE ([…], time 14 day): 0.6 mg/dL; Ca ([…], time 14 day): 10.2 mg/dL; Cl ([…], time 14 day): 104.6 meq/L; DBIL ([…], time 14 day): 0.006 mg/dL; GLC ([…], time 14 day): 185.4 mg/dL; IP ([…], time 14 day): 6.8 mg/dL; K ([…], time 14 day): 5 meq/L; LDH ([…], time 14 day): 78.6 IU/L; Na ([…], time 14 day): 134.2 meq/L; PL ([…], time 14 day): 135.8 mg/dL; RALB ([…], time 14 day): 4.1 g/dL; TBIL ([…], time 14 day): 0.4 mg/dL; TC ([…], time 14 day): 61.6 mg/dL; TG ([…], time 14 day): 156.8 mg/dL; TP ([…], time 14 day): 6.2 g/dL; gamma-GTP ([…], time 14 day): 2 IU/L; A/G ([…], time 28 day): 1.6; ALP ([…], time 28 day): 613.4 IU/L; ALT ([…], time 28 day): 25.8 IU/L; AST ([…], time 28 day): 54.6 IU/L; BUN ([…], time 28 day): 21.6 mg/dL; CRE ([…], time 28 day): 0.6 mg/dL; Ca ([…], time 28 day): 10.2 mg/dL; Cl ([…], time 28 day): 103 meq/L; DBIL ([…], time 28 day): 0 mg/dL; GLC ([…], time 28 day): 164 mg/dL; IP ([…], time 28 day): 6.9 mg/dL; K ([…], time 28 day): 4.6 meq/L; LDH ([…], time 28 day): 90.2 IU/L; Na ([…], time 28 day): 135.2 meq/L; PL ([…], time 28 day): 135.6 mg/dL; RALB ([…], time 28 day): 3.9 g/dL; TBIL ([…], time 28 day): 0.3 mg/dL; TC ([…], time 28 day): 60.8 mg/dL; TG ([…], time 28 day): 131.8 mg/dL; TP ([…], time 28 day): 6.4 g/dL; gamma-GTP ([…], time 28 day): 1.6 IU/L
